Assay results taken from publication PMC10893061, “Novel 2,5-Diketopiperazines with In Vitro Activities against Protozoan Parasites of Tropical Diseases” (Pharmaceuticals, 2024).
≈ marks a conversion by molar mass, not a printed value. Like-named read-outs stand apart in the source and are kept apart here.

Legend:
[1] = test system: P. falciparum chloroquine-resistant and mefloquine-sensitive W2 clone; assay: Anti-Plasmodium falciparum activity assay (SYBR, erythrocytic asexual stages); format: cell-based; conditions: for IC50: Plasmodium falciparum, W2, 48 h; for Status: P. falciparum, activity status from IC50 and SI
Method: In vitro assay with P. falciparum culture were performed as described previously. […] The activity was measured using the SYBR assay with the parasite suspension (0.5% parasitemia and 2% hematocrit) with minor modifications. The test compounds, in serial dilutions, were incubated in “U” bottom 96-wells plates. After 48 h at 37 °C, the culture supernatant was removed and replaced by 100 µL of lysis buffer solution [Tris (20 mM; pH 7.5), EDTA (5 mM), saponin (0.008%; wt/vol), and Triton X 100 (0.08%; vol/vol)] followed by addition of 0.2 µL/mL SYBR Safe (Sigma-Aldrich, Carlsbad, CA, USA). The plate content was transferred to a flat bottom plate and incubated in the dark for 30 min. The plate was read in a fluorometer (Synergy H4 Hibrid Reader, Biotek) with excitation at 485 nm and 535 nm of emission. In all tests, the compound activities were expressed by the 50% inhibitory concentration of the parasite growth (IC50) when compared to the drug-free controls and estimated using the curve-fitting software Origin 8.0 (OriginLab Corporation, Northampton, MA, USA).

[2] = Cytotoxicity, neutral red uptake assay on BGM cells; format: cell-based; conditions: BGM monkey kidney cells
Method: The BGM cells were incubated with 20 µL of the drugs at different concentrations (≤1000 µg/mL) for 24 h in a 5% CO2 at 37 °C. The neutral red uptake assay was used to evaluate the lysosomal integrity and distinguishes live cells from dead by its ability to incorporate the dye. Briefly, to each well was added 0.2 mL medium containing 50 µg/mL of neutral red solution. The plate was incubated for another 3 h at 37 °C to allow for the uptake of the vital dye into the lysosomes of viable uninjured cells. After removal of medium, 200 µL of a mixture of 0.5% formaldehyde-1% CaCl2 was added to the cells and incubated by 5 min. The supernatant was removed and 100 µL of a solution of 1% acetic acid-50% ethanol was added to each well to extract the dye. After homogenization, the optical density of each well of the plate was measured using a 540 nm wavelength on a spectrophotometer. This absorbance has shown a linear relationship with the number of surviving cells. The cell viability was expressed as the percentage of control absorbance obtained from the untreated cells after subtracting the appropriate background.

[3] = test system: T. cruzi Tulahuen strain in L929 cells; assay: Anti-Trypanosoma cruzi activity assay (infected L929 cells, beta-galactosidase reporter); format: cell-based; conditions: for Status: T. cruzi, activity status from IC50 and SI; for IC50: Trypanosoma cruzi, T. cruzi Tulahuen in L929 cells, 96 h
Method: (§1) Their half-maximum cytotoxic concentrations (CC50) and their selectivity indices (SI), obtained as the ratio of the cytotoxic concentration against the bioactive concentration are shown in Table 2. Theoretically, the higher the SI value, the greater the effectiveness for the target and the lower the toxicity of the compound, characterizing a potentially safe and selective drug.
The in vitro anti-T. cruzi activity was evaluated on L929 cells (mouse fibroblasts) infected with Tulahuen strain of the parasite expressing the Escherichia coli β-galactosidase as reporter gene according to the method described previously. Briefly, four thousand L929 cells were added to each well of a 96-well microtiter plate. After an overnight incubation, a 10 fold excess of trypomastigotes were added to the cells, incubated for 2 h, then replaced with 200 μL of fresh medium and incubated for additional 48 h to establish the infection. For IC50 determination, the cells were exposed to each synthesized compound at serial decreasing dilutions and the plate was incubated for 96 h. Afterwards, 50 μL of 500 μM chlorophenol red beta-D-galactopyranoside (CPRG) in 0.5% Nonidet P40 was added to each well, and the plate incubated for 16 to 20 h, after which the absorbance at 570 nm was measured. Controls with uninfected cells, untreated infected cells, infected cells treated with benznidazole at 3.8 μM (positive control) or 1% DMSO were used. The results were expressed as the percentage of T. cruzi growth inhibition in compound tested cells as compared to the infected cells and untreated cells. The IC50 values were calculated by linear interpolation. Quadruplicates were run in the same plate, and the experiments were repeated at least once.
(§2) IC50 over T. cruzi and L929 cells were determined by linear interpolation and the selectivity index (SI) was calculated by the ratio of CC50 L929 cells/ IC50 T. cruzi.

[4] = Cytotoxicity on L929 cells (AlamarBlue); format: cell-based; conditions: mouse, L929 mouse fibroblast cells
Method: The medium was then replaced, and the cells were exposed to compounds at increasing concentrations starting at IC50 value for T. cruzi. After 96 h of incubation with the compounds, AlamarBlue^TM was added and the absorbance at 570 and 600 nm was measured after 4–6 h. Controls with untreated and DMSO 1%-treated cells were run in parallel. The results were expressed as the percent difference in the reduction between treated and untreated cells. The compound concentration that inhibits 50% of the L929 cell viability (CC50) was determined. Quadruplicates were run in the same plate and the experiments were repeated at least once.
as §2

[5] = test system: Leishmania infantum (MHOM/BR/1974/PP75) in THP-1 macrophages; assay: Anti-Leishmania infantum activity assay (infected THP-1 macrophages, red fluorescence); format: cell-based; conditions: for Status: L. infantum, activity status from IC50 and SI; for IC50: Leishmania infantum, L. infantum in THP-1 macrophages, 72 h
Method: as §1
Cells derived from the human monocytic strain THP-1 were cultured in complete Rowell Park Memorial Institute (RPMI)-1640 medium (supplemented with 10% fetal bovine serum, 100 U/mL penicillin, and 100 μg/mL streptomycin). Monocytes were differentiated into macrophages by the addition of 20 ng/mL phorbol myristate acetate (PMA). […] The IC50 values were determined by non-linear regression using a variable slope model (log[concentration] vs. growth inhibition) with the GraphPad Prism v8.2.0 (Boston, MA, USA) software. Controls with uninfected cells, untreated infected cells, infected cells treated with amphotericin B at 0.25 μM (positive control) or DMSO 1% were used. Quadruplicates were run in the same plate, and the experiments were repeated at least once.

[6] = Cytotoxicity on THP-1 derived macrophages (AlamarBlue); format: cell-based; conditions: human, THP-1 cells differentiated into macrophages, THP-1 macrophages
Method: For the cytotoxicity assay, human monocytic THP-1 cells were differentiated into macrophages in 96-well microtiter plates for 72 h, as described above. The medium was then replaced, and the cells were exposed to the compounds at increasing concentrations starting at IC50 value for each Leishmania spp. line. After 72 h of incubation with the compounds, AlamarBlue™ was added and the absorbance at 570 and 600 nm was measured after 4 h. Controls with untreated and DMSO 1%-treated cells were run in parallel. The results were expressed as the percentual difference in the reduction between treated and untreated cells. The compound concentration that inhibits 50% of the THP-1 cell viability (CC50) was determined. The CC50 values were determined by non-linear regression using a variable slope model (log(concentration) vs. growth inhibition) with the GraphPad Prism v8.2.0 (CA, USA) software. Triplicates were run in the same plate and the experiments were repeated at least once.

Plasmodium = test system: Plasmodium; parameters: method as in PMID 28223778; conditions: cited from earlier work
[7] = P. falciparum W2 clone, 48 h, SYBR, read-out: IC50

| SMILES | IC50 [1, 7] | Status [3] | IC50 [3] | CC50 at 96 h [4] | IC50 [5] | other results |
| --- | --- | --- | --- | --- | --- | --- |
| O=C1C(c2ccccc2F)N(c2ccc(F)cc2)C(=O)CN1c1ccc(Cl)cc1 (stereo not drawn) [Compound 20] | 17.6 ± 1.3 µg/mL | toxic (selectivity index = CC50/IC50, values < 10 are considered toxic) | 15.4 ± 3 µg/mL (≈ 37.3 µM) | 32.1 µg/mL (≈ 77.8 µM) | – | CC50 at 24 h [2]: 9.4 ± 5.1 µg/mL (≈ 22.8 µM) |
| O=C1C(c2ccccc2F)N(c2ccccc2)C(=O)CN1c1ccc(Cl)cc1 (stereo not drawn) [Compound 5] | 15.6 ± 2.6 µg/mL | toxic (selectivity index = CC50/IC50, values < 10 are considered toxic) | 9.3 ± 0.1 µg/mL (≈ 23.6 µM) | 29.2 µg/mL (≈ 74 µM) | – | CC50 at 24 h [2]: ≤ 3.1 µg/mL |
| O=C1C(c2ccc(O)c(Br)c2)N(c2ccccc2)C(=O)CN1c1ccc(Cl)cc1 (stereo not drawn) [Compound 15] | 14.9 ± 0.7 µg/mL | toxic (selectivity index = CC50/IC50, values < 10 are considered toxic) | 11.2 ± 6 µg/mL (≈ 23.7 µM) | 81.8 µg/mL (≈ 173 µM) | – | Status [1]: toxic (selectivity index = CC50/IC50, values < 10 are considered toxic); CC50 at 24 h [2]: 18.5 ± 3.4 µg/mL (≈ 39.2 µM) |
| O=C1C(c2ccc(O)cc2)N(c2ccccc2)C(=O)CN1c1ccc(Cl)cc1 (stereo not drawn) [Compound 14] | – | – | – | – | 8.3 ± 0.2 µg/mL (≈ 21.1 µM) | Status [5]: ACTIVE; CC50 at 72 h [6]: 611 ± 1 µg/mL (≈ 1560 µM) |
| O=C1C(c2ccc(Cl)cc2)N(c2ccc(F)cc2)C(=O)CN1c1ccc(Cl)cc1 (stereo not drawn) [Compound 21] | ≥ 50 µg/mL | toxic (selectivity index = CC50/IC50, values < 10 are considered toxic) | 16.1 ± 2 µg/mL (≈ 37.5 µM) | 16.8 µg/mL (≈ 39.1 µM) | – | Status [1]: inactive |
| O=C1C(c2ccc(F)cc2)N(c2ccccc2)C(=O)CN1c1ccc(Cl)cc1 (stereo not drawn) [Compound 11] | – | – | – | – | 38.2 ± 1.8 µg/mL (≈ 96.7 µM) | Status [5]: inactive |
| O=C1C(c2cccc(Cl)c2)N(c2ccccc2)C(=O)CN1c1ccc(Cl)cc1 (stereo not drawn) [Compound 10] | 28.1 ± 0.3 µg/mL | – | – | – | – | Status [1]: inactive |
| CC(C)C[C@@H]1NC(=O)[C@@H]2CCCN2C1=O [Gancidin W] | – | – | – | – | – | in vivo anti-malarial activity (Plasmodium): active, low-toxic |
| O=C1C(c2ccc(Cl)cc2)N(c2ccccc2)C(=O)CN1c1ccc(Cl)cc1 (stereo not drawn) [Compound 4] | – | – | – | – | 35.7 ± 0.8 µg/mL (≈ 86.8 µM) | Status [5]: inactive |
| O=C(Cn1ccnc1[N+](=O)[O-])NCc1ccccc1 [Benznidazole, reference compound] | – | – | 0.5 ± 0.1 µg/mL (≈ 1.92 µM) | 540 µg/mL (≈ 2070 µM) | – | – |
| CCN(CC)CCCC(C)Nc1ccnc2cc(Cl)ccc12 (stereo not drawn) [Chloroquine, reference compound] | – | – | – | – | – | IC50 [1]: 0.174 ± 0.055 µg/mL |
| C[C@@H]1[C@H](O)[C@@H](C)/C=C/C=C/C=C/C=C/C=C/C=C/C=C/[C@H](O[C@@H]2O[C@H](C)[C@@H](O)[C@H](N)[C@@H]2O)C[C@@H]2O[C@](O)(C[C@@H](O)C[C@@H](O)[C@H](O)CC[C@@H](O)C[C@@H](O)CC(=O)O[C@H]1C)C[C@H](O)[C@H]2C(=O)O [Amphotericin B, reference compound] | – | – | – | – | 0.228 ± 0.025 µg/mL (≈ 0.247 µM) | CC50 at 72 h [6]: 367 ± 1 µg/mL (≈ 397 µM) |
